In experiment [1] the test system is HCC1937 BRCA1 mutant and HCC1937 BRCA1 reconstituted cells. Nature of the experiment: Clonogenic growth assay (WST-1, colony counting). The class given is cell-based. As to conditions: continuous treatment for 9 days, WST-1 and colony numbers. On the procedure:
HCC1937 BRCA1 mutant and HCC1937 BRCA1 reconstituted breast ductal carcinoma cells were cultured in RPMI-1640 medium supplemented with 10% fetal calf serum, 2 mM L-glutamine, 1 mM sodium pyruvate, 4.5 g/l glucose and 1% (v/v) penicillin/streptomycin. Status of BRCA1 was corroborated by immunoprecipitation using 50 μg nuclear extracts and 1 μg mouse monoclonal antibody MS110 (ab16780, Abcam Inc., Cambridge, MA), which is directed towards the amino-terminus of the protein. Blots were probed with BRCA1 carboxy-terminal specific mouse monoclonal antibody D9 (sc-6954, Santa Cruz Biotechnologies, Santa Cruz, CA) and, following stripping, re-probed with antibody MS110. For assays, 5000 cells in 3 ml medium were seeded per well of 6 well plates in duplicates. The day after, vehicle (DMSO) or compounds were added. After one week medium was exchanged and vehicle or compounds were re-added for an additional two days. To assess proliferation the medium in each well was replaced with 1 ml medium containing 100 μl WST-1 reagent and incubation for 20 minutes at 37°C. Of each sample 110 μl supernatant were transferred into a 96 well plate and the OD was read at 450 nm (filter at 630 nm) on a SpectraMax Plus microtiter plate reader using SoftMax Pro software (Molecular Devices). For background correction, the blank value consisted of 100 μl medium containing 10 μl WST-1. Thereafter, colonies were stained by removing medium, washing cells once with PBS and incubation with 1 ml crystal violet solution for 30 minutes at room temperature. Cells were washed twice with PBS and colonies were counted using an Artec Counter (Model 880, Artec, Dyntatech Laboratories Inc.) with diameter cut-off set to 0.2 mm. Data were expressed as growth or colony numbers relative to vehicle control treatments (100%).
On the technique in general: Tetrazolium assays rely on reduction of a dye to a coloured formazan, in cell work by metabolically active cells.

The next experiment deals with T1, topoisomerase II beta (Homo sapiens, UniProt Q02880).
T1 construct: endogenous in cells; host or cells: HL-60 nuclear extract
Nature of the experiment: Affinity precipitation with biotinylated purine analogue 2 from HL-60 nuclear extracts. It counts as binding. To be noted: for competition of the interaction of biotinylated purine analogue 2 with topoisomerase II beta: 1 μM biotinylated analogue 2, competitor in excess (10 μM), QAP 1 also at equimolar concentration. On the procedure:
(§1) Topoisomerase II α and β were affinity precipitated with biotinylated inhibitor as follows. Exponentially growing HL-60 cells were collected on ice and incubated with hypotonic buffer (10 mM HEPES pH 7.5, 1.5 mM MgCl2, 10 mM KCl, 0.5 mM DTT, 0.5 mM PMSF, 1× protease inhibitor cocktail (Complete Mini, Roche Diagnostics GmbH)) for 15 minutes, then 0.6% v/v NP-40 was added and cells were disrupted using a Dounce homogenizer. Lysates were transferred to 1.5 ml Protein LoBind Eppendorf tubes and nuclei were collected after centrifugation at 8000 rpm for 10 minutes and washed twice with hypotonic buffer. To extract and release chromatin associated topoisomerase II nuclei were incubated for 30 minutes in DNAse buffer (20 mM Tris HCl pH 7.5, 5 mM MgCl2, 1 mM CaCl2, 25 mM NaCl, 0.5 mM EDTA, 1% NP-40, 1 mM DTT, 1 × protease inhibitor cocktail, 0.1 mM PMSF) containing 40 U DNAse I (Roche Diagnostics GmbH) followed by addition of twice concentrated nuclear extraction buffer (20 mM HEPES pH 7.5, 3 mM MgCl2, 20 mM KCl, 50 mM β-glycerophosphate, 840 mM NaCl, 1 mM EDTA, 50 mM PNPP, 1 mM DTT, 1 mM PMSF) and rotation for 1 h in the coldroom. The soluble fraction was obtained following centrifugation at 13000 rpm for 15 minutes. 25 μg nuclear extract were used for the affinity precipitation. The salt concentration was adjusted to 150 mM with nuclear extraction buffer (without NaCl) and the sample volume was toped off to 200 μl with precipitation buffer (50 mM HEPES pH 7.4, 150 mM NaCl, 25 mM β-glycerophosphate, 25 mM NaF, 5 mM EGTA, 1 mM EDTA, 15 mM PPI, 1 mM PMSF). Compounds were preincubated for 30 minutes prior addition of biotinylated purine analogue 2 for 2 h. Streptavidin agarose beads (Novagen, 69203) were washed twice with PBS, blocked for 30 minutes with PBS containing 1% BSA, washed twice with PBS and finally with precipitation buffer. 40 μl equilibrated streptavidin agarose beads were added to the sample and incubation was continued for 1 h. Beads were pelleted by centrifugation at 7000 rpm for 5 minutes and washed thrice with precipitation buffer. During the last wash the beads were transferred to a new tube and the bound fraction was released by boiling for 5 minutes in Laemmli sample buffer. Topoisomerase II α and β were detected by Western blot as described below.

Experiment [2] addresses T2, topoisomerase II alpha (Homo sapiens, UniProt P11388). Described as above. The class given is binding. Also on record: endogenous in cells; host or cells: HL-60 nuclear extract. As to conditions: for competition of the interaction of biotinylated purine analogue 2 with topoisomerase II alpha: 1 μM biotinylated analogue 2, competitor in excess (10 μM), QAP 1 also at equimolar concentration. On the procedure: as §1

In experiment [3] the target is T2, topoisomerase II alpha. Nature of the experiment: DNA-dependent ATPase assay (malachite green). It counts as biochemical. Set-up: screened in an ATPase assay using purified full length tagged human topoisomerase II alpha; made in house; host or cells: Sf21 insect cells, baculovirus (pFastBac1). On the procedure:
DNA-dependent ATP hydrolysis of human topoisomerase II α was monitored by measuring the production of inorganic phosphate using acidic molybdate and malachite green. Specific ATPase activity of every batch was tested in a time-course to determine optimal incubation times and enzyme concentrations within the linear range of the assay. Reactions thus contained 10 – 40 nM topoisomerase II (dimer concentration) in reaction buffer (10 mM Tris HCl pH 7.5, 175 mM KCl, 0.1 mM EDTA, 5 mM MgCl2, 2 mM DTT, 2.5% glycerol and 1.7 nM supercoiled pUC18). The specific activity of the human topoisomerase II α enzyme measured in the ATPase assay was 0.24 μmol PO4·min^-1·mg^-1. […] Compounds at the indicated concentrations were added as serial dilutions prepared in DMSO and preincubated for 10 minutes at 37°C on an orbital shaker. Reactions were started by the addition of 400 μM ATP (Sigma, catalog number A2383) and allowed to proceed for 30 minutes. Reactions were terminated by the addition of 200 μl malachite green reagent and the OD was read immediately at 630 nm on a SpectraMax Plus microtiter plate reader using SoftMax Pro software (Molecular Devices). For kinetic analysis, reactions were carried out in duplicate as described above either in the presence of vehicle (DMSO) or QAP 1. Following a preincubation for 5 minutes, ATP was added at the indicated concentrations to start the reactions, which were allowed to proceed for 17 minutes before stopping and reading as above. From these values the OD values obtained at each respective ATP concentration without enzyme were subtracted for background correction. […] A compromise was found by carrying out the competition experiments with a single concentration of the inhibitor that gave a good inhibition of enzyme activity while keeping a measurable signal. The equations used to fit these experiments are: […]
Each competition experiment was fitted (Grafit version 5.04 – Erithacus Software) with these 3 equations and the models that gave unrealistic inhibition constants (above 10 mM) and/or large standard errors (similar to the value of the fitted parameter) were rejected. Then, the F-test was carried out to identify the best fitting model. An alternative method was used to determine the mode of action of the inhibitor. Dose-response experiments were carried out at different ATP concentrations and the corresponding IC50s determined. According to the Cheng-Prusoff equation for linear competitive inhibition: […]
The IC50 of a competitive inhibitive inhibitor should increase in a linear fashion with the concentration of ATP. The measured IC50s were then plotted in function of the ATP concentrations and linear regression analyses were carried out. […] Mean Km and Vmax values were calculated from two independent experiments.

The mark [4] stands for this setting: 1 μM biotinylated compound, HL-60 nuclear extracts.

Broadly, the IC50 is the point on the concentration scale where inhibition reaches its midpoint.

T2 sequence (P11388 whole entry): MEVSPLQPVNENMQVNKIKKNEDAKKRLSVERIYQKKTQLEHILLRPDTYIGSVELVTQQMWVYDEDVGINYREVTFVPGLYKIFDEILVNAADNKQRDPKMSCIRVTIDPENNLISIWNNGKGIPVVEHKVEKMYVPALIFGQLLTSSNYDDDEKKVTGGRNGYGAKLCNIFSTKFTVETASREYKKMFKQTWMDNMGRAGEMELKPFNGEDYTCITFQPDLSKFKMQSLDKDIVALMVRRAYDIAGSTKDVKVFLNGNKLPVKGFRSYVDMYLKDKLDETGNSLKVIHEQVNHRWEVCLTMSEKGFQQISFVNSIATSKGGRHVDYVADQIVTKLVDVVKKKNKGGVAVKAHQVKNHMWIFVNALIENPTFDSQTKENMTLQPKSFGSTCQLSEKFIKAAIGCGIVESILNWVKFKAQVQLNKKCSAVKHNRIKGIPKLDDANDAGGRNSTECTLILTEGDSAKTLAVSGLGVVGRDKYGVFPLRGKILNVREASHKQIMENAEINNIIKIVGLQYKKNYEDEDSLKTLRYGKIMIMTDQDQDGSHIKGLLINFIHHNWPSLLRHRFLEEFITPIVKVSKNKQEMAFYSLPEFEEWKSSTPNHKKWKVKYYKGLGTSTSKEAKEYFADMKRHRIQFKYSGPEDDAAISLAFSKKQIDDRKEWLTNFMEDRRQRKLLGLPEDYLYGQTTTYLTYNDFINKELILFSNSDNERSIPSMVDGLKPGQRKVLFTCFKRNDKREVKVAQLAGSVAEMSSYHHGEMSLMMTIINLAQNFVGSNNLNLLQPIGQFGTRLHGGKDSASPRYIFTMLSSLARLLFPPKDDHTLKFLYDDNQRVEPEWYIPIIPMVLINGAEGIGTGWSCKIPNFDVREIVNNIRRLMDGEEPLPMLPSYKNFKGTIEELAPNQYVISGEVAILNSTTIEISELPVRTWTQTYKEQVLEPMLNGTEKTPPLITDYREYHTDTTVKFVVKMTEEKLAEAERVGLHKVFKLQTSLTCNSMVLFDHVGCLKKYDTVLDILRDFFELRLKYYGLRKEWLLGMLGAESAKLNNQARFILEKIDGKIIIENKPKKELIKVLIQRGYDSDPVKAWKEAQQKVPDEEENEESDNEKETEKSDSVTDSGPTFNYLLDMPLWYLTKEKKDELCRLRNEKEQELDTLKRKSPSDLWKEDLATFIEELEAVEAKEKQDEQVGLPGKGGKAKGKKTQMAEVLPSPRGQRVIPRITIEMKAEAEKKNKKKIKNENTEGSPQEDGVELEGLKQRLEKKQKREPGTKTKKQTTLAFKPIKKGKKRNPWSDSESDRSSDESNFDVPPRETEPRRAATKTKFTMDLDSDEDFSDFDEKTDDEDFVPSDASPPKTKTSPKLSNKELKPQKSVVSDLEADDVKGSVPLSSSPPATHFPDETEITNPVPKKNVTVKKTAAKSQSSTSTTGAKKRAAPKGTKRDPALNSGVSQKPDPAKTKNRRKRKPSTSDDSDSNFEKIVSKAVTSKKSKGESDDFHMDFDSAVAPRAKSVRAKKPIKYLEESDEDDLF
T1 sequence (Q02880 whole entry): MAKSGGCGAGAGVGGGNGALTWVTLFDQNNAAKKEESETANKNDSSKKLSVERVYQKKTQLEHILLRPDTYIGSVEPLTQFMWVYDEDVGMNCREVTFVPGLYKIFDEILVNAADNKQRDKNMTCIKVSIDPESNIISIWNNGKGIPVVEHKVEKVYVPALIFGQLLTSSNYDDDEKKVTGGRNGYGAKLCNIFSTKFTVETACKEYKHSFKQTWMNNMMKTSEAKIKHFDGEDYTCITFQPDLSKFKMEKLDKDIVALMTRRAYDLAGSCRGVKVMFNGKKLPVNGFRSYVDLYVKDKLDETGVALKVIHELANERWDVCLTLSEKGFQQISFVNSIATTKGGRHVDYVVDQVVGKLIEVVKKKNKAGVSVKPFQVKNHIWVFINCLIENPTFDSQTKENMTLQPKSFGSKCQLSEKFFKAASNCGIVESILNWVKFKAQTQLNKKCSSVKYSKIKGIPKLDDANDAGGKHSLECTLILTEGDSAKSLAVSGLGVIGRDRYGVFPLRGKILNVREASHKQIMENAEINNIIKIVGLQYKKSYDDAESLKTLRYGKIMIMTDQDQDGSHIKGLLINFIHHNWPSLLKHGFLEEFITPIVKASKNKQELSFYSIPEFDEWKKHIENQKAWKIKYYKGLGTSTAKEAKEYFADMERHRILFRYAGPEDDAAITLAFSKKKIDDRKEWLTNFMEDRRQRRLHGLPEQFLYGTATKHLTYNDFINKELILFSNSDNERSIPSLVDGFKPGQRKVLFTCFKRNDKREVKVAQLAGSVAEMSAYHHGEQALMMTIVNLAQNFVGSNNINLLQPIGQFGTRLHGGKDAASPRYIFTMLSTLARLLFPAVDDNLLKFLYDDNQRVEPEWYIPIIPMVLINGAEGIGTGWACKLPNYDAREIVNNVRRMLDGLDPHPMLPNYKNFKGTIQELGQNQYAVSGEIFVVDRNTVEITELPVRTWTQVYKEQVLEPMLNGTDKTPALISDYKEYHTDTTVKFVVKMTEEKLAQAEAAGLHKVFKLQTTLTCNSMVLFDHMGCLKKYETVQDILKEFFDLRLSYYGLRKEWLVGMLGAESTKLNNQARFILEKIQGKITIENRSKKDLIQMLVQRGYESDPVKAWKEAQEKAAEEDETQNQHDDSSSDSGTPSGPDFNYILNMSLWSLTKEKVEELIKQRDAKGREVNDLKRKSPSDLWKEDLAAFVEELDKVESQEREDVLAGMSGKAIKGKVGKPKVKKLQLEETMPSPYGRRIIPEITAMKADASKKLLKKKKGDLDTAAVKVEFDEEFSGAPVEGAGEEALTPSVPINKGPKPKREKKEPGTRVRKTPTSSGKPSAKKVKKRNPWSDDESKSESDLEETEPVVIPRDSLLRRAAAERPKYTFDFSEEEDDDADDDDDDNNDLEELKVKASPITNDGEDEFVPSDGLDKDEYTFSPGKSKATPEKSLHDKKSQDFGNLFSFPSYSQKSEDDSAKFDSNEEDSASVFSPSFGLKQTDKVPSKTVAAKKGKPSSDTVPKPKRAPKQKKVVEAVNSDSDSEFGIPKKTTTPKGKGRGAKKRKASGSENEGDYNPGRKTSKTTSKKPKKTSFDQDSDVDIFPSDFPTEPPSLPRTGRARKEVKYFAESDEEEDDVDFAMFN

Consider `C=CCNC1=C2C[C@@H](C)C[C@H](OC)[C@H](O)[C@@H](C)/C=C(\C)[C@H](OC(N)=O)[C@@H](OC)/C=C\C=C(/C)C(=O)NC(=CC1=O)C2=O` [17-AAG, reference compound], for which, in experiment [1], the “sensitivity of BRCA1 mutant versus BRCA1 reconstituted HCC1937 cells” value is recorded as “to a similar extent”.
For the compound `CCc1nc2c(NC(C)(C)C)nc(Nc3ccc4nc(OCCN5CCN(C(=O)CCOCCOCCOCCNC(=O)CCCC[C@@H]6SC[C@@H]7NC(=O)N[C@@H]76)CC5)sc4c3)nc2[nH]1` [purine analogue 2], the “pull down of topoisomerase II beta by biotinylated compound” value on topoisomerase II beta (setting [4]) is recorded as “pull down”. Moreover, on topoisomerase II alpha [2] (setting [4]), the “pull down of topoisomerase II alpha by biotinylated compound” value is “pull down”.
On to `CCc1nc2c(NC(C)(C)C)nc(Nc3ccc4ncsc4c3)nc2[nH]1` [purine analogue 3], for which the “competition of the interaction of biotinylated purine analogue 2 with topoisomerase II beta” value on topoisomerase II beta is listed as “lost”. Besides, the “competition of the interaction of biotinylated purine analogue 2 with topoisomerase II alpha” value at topoisomerase II alpha [2] is on record as “lost”. The compound also yielded a half-inhibitory concentration (IC50) against topoisomerase II alpha [3] (full length tagged human topoisomerase II alpha, 400 μM ATP) of 432 ± 30 nM.
In the case of `CCc1nc2c(N3CCSCC3)nc(Nc3ccc4ncsc4c3)nc2[nH]1` [purine analogue 4], the “competition of the interaction of biotinylated purine analogue 2 with topoisomerase II beta” value at topoisomerase II beta was “not”. For the same compound, the “competition of the interaction of biotinylated purine analogue 2 with topoisomerase II alpha” value at topoisomerase II alpha [2] is given as “not”. Besides, the “activity in the ATPase assays” value at topoisomerase II alpha [3] (result in words) is “inactive”.

The values above are taken from publication PMC2628638, “Catalytic inhibition of topoisomerase II by a novel rationally designed ATP-competitive purine analogue” (BMC Chemical Biology, 2009).
